Series [1] has as its target CYP3A5 G480L (Homo sapiens, UniProt P20815, G480L). As to the kind of experiment: Cell-based P450-Glo CYP3A mutant inhibition assay, CYP3A5 G480L. Conditions: G480L substitution; 293T/17 cells.
Series [2] addresses CYP3A5^G480A (Homo sapiens, UniProt P20815, G480A). In words: Cell-based P450-Glo CYP3A mutant inhibition assay, CYP3A5 G480A. Conditions: 293T/17 cells.
Series [3] addresses T1, purified human CYP3A5 (Homo sapiens, UniProt P20815). The note with it: 10 min.
Series [4] deals with CYP3A4 (Homo sapiens, UniProt P08684). In words: UV-Vis spectroscopy binding assay, CYP3A4. Conditions: for increase in Ks on removal of the region B group: CYP3A4, region B-deleted analog vs parent.
Series [5] concerns the target CYP3A5 G480S (Homo sapiens, UniProt P20815, G480S). As to the kind of experiment: Cell-based P450-Glo CYP3A mutant inhibition assay, CYP3A5 G480S. The note with it: G480S substitution; 293T/17 cells.
For series [6], the target named is CYP3A4^D214G (Homo sapiens, UniProt P08684, D214G). As to the kind of experiment: Cell-based P450-Glo CYP3A mutant inhibition assay, CYP3A4 D214G. Conditions: 293T/17 cells.
The target of series [7] is CYP3A4^WT (Homo sapiens, UniProt P08684). In words: Cell-based P450-Glo CYP3A mutant inhibition assay, CYP3A4 WT. The note with it: 293T/17 cells; also prior data ref 30.
Series [8] deals with CYP3A5^G214A/G480A (Homo sapiens, UniProt P20815, G214A/G480A). As to the kind of experiment: Cell-based P450-Glo CYP3A mutant inhibition assay, CYP3A5 G214A/G480A. Conditions: 0.08–20 μM CBZ; 293T/17 cells.
Series [9] has as its target T2, CYP3A5 (Homo sapiens, UniProt P20815). As to the kind of experiment: Time-dependent inhibition assay. The note with it: pre-incubation 0 or 30 mins at room temperature. Format: biochemical.
Series [10] concerns the target CYP3A4^F108L (Homo sapiens, UniProt P08684, F108L). In words: Cell-based P450-Glo CYP3A mutant inhibition assay, CYP3A4 F108L. Conditions: relative to CYP3A4^WT; 293T/17 cells.
Series [11] addresses T3, purified human CYP3A4 (Homo sapiens, UniProt P08684). In words: Biochemical P450-Glo CYP3A inhibition assay, CYP3A4.
In series [12] the target is T2, CYP3A5. As to the kind of experiment: UV-Vis spectroscopy binding assay, CYP3A5.
The target of series [13] is T1, purified human CYP3A5. As to the kind of experiment: Biochemical P450-Glo CYP3A inhibition assay, CYP3A5.
Series [14] concerns the target T2, CYP3A5. As to the kind of experiment: in vitro.
Series [15] concerns the target T3, purified human CYP3A4. The note with it: 10 min.

Each structure is given as a SMILES string. Read-outs that look alike come from different tables or passages of the source. A value given as a limit tells only on which side of the number the result lay.

On to `CCC(=O)O[C@]1(C(=O)CCl)[C@@H](C)C[C@H]2[C@@H]3CCC4=CC(=O)C=C[C@]4(C)[C@@]3(F)[C@@H](O)C[C@@]21C` [CBZ, Clobetasol propionate], for which the “reduction in potency vs WT” value in series [1] and in series [5] was “at least 20 fold” in each case. Besides, the “inhibition compared with CYP3A5^WT” value in series [2] was “to the same extent as was CYP3A5^WT”. The “CYP3A5 inhibition” value in series [3] is “potent and selective inhibitor of CYP3A5”. The “increase in Ks on removal of the region B group” value in series [4] was “approximately 20 fold”. Also, in series [6], the “inhibition compared with CYP3A4^WT” value is recorded as “identically”. For the same compound, in series [7], the “CYP3A4 inhibition” value is on record as “can be inhibited at high CBZ concentrations”. Also, the “effect on enzyme activity” value in series [8] is listed as “weakly activated”. In addition, the “time-dependent inhibition of CYP3A5” value in series [9] is on record as “not time-dependent inhibitors of CYP3A5”. In [10], the “effect of the F108L substitution on inhibitory potency” value is listed as “substantially weakened the inhibitory potency”.

Consider `CCC(=O)OCC(=O)[C@@]1(OC(=O)CC)[C@@H](C)C[C@H]2[C@@H]3CCC4=CC(=O)C=C[C@]4(C)[C@@]3(F)[C@@H](O)C[C@@]21C` [betamethasone dipropionate], for which, in series [3], the “CYP3A5 inhibition” value is given as “consistently weaker CYP3A5 inhibition”.

As to `C[C@H]1C[C@H]2[C@@H]3CCC4=CC(=O)C=C[C@]4(C)[C@@]3(F)[C@@H](O)C[C@]2(C)[C@@]1(O)C(=O)CCl` [clobetasol, Clobetasol], in series [11] (purified full-length CYP3A4, luciferin-IPA), the 50% inhibitory concentration (IC50) (in general, the concentration at which inhibition is half-maximal) stood at 13 ± 4 µM. The “Ks relative to the counterpart with region B group” value in series [12] (dexamethasone acetate vs difluprednate, clobetasol vs CBZ, Ks higher) is reported as > 100 fold. Also, in series [13] (P450-Glo biochemical assay), the “CYP3A5 inhibition” value is “failed to inhibit CYP3A5 even at the highest concentration tested”.

Regarding `CCCC(=O)O[C@]1(C(=O)CCl)[C@@H](C)C[C@H]2[C@@H]3CCC4=CC(=O)C=C[C@]4(C)[C@@]3(F)C(=O)C[C@@]21C` [clobetasone butyrate, Clobetasone butyrate], the “Ks for CYP3A4 compared with CBZ” value in series [4] was “maintained similar Ks value”. Further, the “CYP3A4 inhibition” value in series [11] (P450-Glo biochemical assay) is on record as “slightly enhanced CYP3A4 inhibition”. In addition, the “weaker CYP3A5 inhibition than CBZ (IC50 ratio)” value in series [13] (IC50 of analog relative to CBZ) is “approximately 5 fold”.

Take `C[C@@H]1C[C@H]2[C@@H]3CCC4=CC(=O)C=C[C@]4(C)[C@@]3(F)[C@@H](O)C[C@]2(C)[C@H]1C(=O)CO` [desoximetasone]: the “CYP3A5 inhibition” value in [3] was “no or weaker CYP3A5 inhibition than that of CBZ”.

For the compound `CC(=O)OCC(=O)[C@@]1(O)[C@H](C)C[C@H]2[C@@H]3CCC4=CC(=O)C=C[C@]4(C)[C@@]3(F)[C@@H](O)C[C@@]21C` [dexamethasone acetate], in series [14], the inhibition (commonly the drop in the measured response relative to a control, in per cent) at 10 min, 300 µM is 35%. Also, in series [12] (human, pH 7.4), the “Ks relative to the counterpart with region B group” value is on record as > 100 fold.

For `CC(=O)OCC(=O)[C@@]1(OC(C)=O)[C@@H](C)C[C@H]2[C@@H]3C[C@H](F)C4=CC(=O)C=C[C@]4(C)[C@@]3(F)[C@@H](O)C[C@@]21C` [diflorasone], the “CYP3A5 inhibition” value in series [3] is recorded as “no or weaker CYP3A5 inhibition than that of CBZ”. Further, the “CYP3A4 inhibition” value in series [15] is given as “still capable of inhibiting CYP3A4 at high concentrations”.

As to `CCCC(=O)O[C@]1(C(=O)COC(C)=O)CC[C@H]2[C@@H]3C[C@H](F)C4=CC(=O)C=C[C@]4(C)[C@@]3(F)[C@@H](O)C[C@@]21C` [difluprednate], in series [3], the “CYP3A5 inhibition” value was “strongest and most selective CYP3A5 inhibitor among all compounds we tested”. The “increase in Ks on removal of the region B group” value is given as 3 fold in [4] and > 100 fold in series [12] (human, pH 7.4). In addition, the “weakening of CYP3A4 inhibition on deleting the region B group” value in series [15] is reported as “approximately 10 fold”.

In the case of `CCOC(=O)O[C@]1(C(=O)COC(=O)CC)CC[C@H]2[C@@H]3CCC4=CC(=O)C=C[C@]4(C)[C@H]3[C@@H](O)C[C@@]21C` [prednicarbate, Prednicarbate], the “CYP3A5 inhibition” value in series [3] is recorded as “consistently weaker CYP3A5 inhibition”.

For the origin of these results see paper PMC8594567 (Journal of the American Chemical Society, 2021).
